In the supplement of paper PMC10307832:

Columns and labels:
Assay in all cases: relative viability (nuclei count vs DMSO), 5 days (fraction); higher = more cells survive
Tosedostat + Luminespib = compound: CC(C)C[C@@H](C(=O)N[C@H](C(=O)OC1CCCC1)c1ccccc1)[C@H](O)C(=O)NO [Tosedostat] + CCNC(=O)c1noc(-c2cc(C(C)C)c(O)cc2O)c1-c1ccc(CN2CCOCC2)cc1 [Luminespib] (partner 0.01 µM)
Outline: (§1)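 For relative viability, nuclei counts in treated wells were divided by those in vehicle wells. Lung cancer cell lines had been pin-tool dosed in 1536-well plates the day after seeding and cultured for 5 days, then fixed and stained in one step (final 0.05% Triton X-100, 1% formaldehyde, 1 ug/ml Hoechst) and imaged at 4×. Doses were one drug alone or a fixed anchor-drug dose plus five library-drug doses (not always all listed) in √10 steps, and values are duplicate-plate medians.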

[1] = compound: CC1=NN=C(O1)C2=NN=C(C=C2)N3CCC(CC3)OC4=C(C=CC(=C4)F)Cl + NC(=O)Nc1cc(-c2cccc(F)c2)sc1C(=O)N[C@H]1CCCNC1 [AZD7762] (partner 0.2 µM)
Outline: as §1

Tosedostat + Pictilisib = compound: CC(C)C[C@@H](C(=O)N[C@H](C(=O)OC1CCCC1)c1ccccc1)[C@H](O)C(=O)NO [Tosedostat] + CS(=O)(=O)N1CCN(Cc2cc3nc(-c4cccc5[nH]ncc45)nc(N4CCOCC4)c3s2)CC1 [Pictilisib] (partner 1 µM)
Outline: as §1

[2] = compound: CC1=NN=C(O1)C2=NN=C(C=C2)N3CCC(CC3)OC4=C(C=CC(=C4)F)Cl + COc1cccc2cc(-c3nc([C@H]4CC[C@H](C(=O)O)CC4)n4ncnc(N)c34)[nH]c12 [OSI-027] (partner 0.5 µM)
Outline: as §1

Cell Line	relative viability (Tosedostat + Luminespib; first compound 0.02 µM)	relative viability (Tosedostat + Luminespib; first compound 0.06325 µM)	relative viability (Tosedostat + Luminespib; first compound 0.2 µM)	relative viability (Tosedostat + Luminespib; first compound 0.6325 µM)	relative viability (Tosedostat + Luminespib; first compound 2 µM)	relative viability ([1]; first compound 0.253 µM)	relative viability ([1]; first compound 0.8 µM)	relative viability ([1]; first compound 2.53 µM)	relative viability ([1]; first compound 8 µM)	relative viability (Tosedostat + Pictilisib; first compound 0.02 µM)	relative viability (Tosedostat + Pictilisib; first compound 0.06325 µM)	relative viability (Tosedostat + Pictilisib; first compound 0.2 µM)	relative viability (Tosedostat + Pictilisib; first compound 0.6325 µM)	relative viability (Tosedostat + Pictilisib; first compound 2 µM)	relative viability ([2]; first compound 0.253 µM)	relative viability ([2]; first compound 0.8 µM)	relative viability ([2]; first compound 2.53 µM)	relative viability ([2]; first compound 8 µM)
LU99A	0.316	0.245	0.337	0.277	0.232	0.349	0.341	0.57	0.385	0.343	0.317	0.295	0.258	0.221	0.274	0.298	0.307	0.287
LXF-289	0.703	0.599	0.687	0.732	0.64	0.898	0.757	1.12	0.967	0.818	0.766	0.752	0.784	0.676	0.76	0.548	0.741	0.687
NCI-H23	0.233	0.203	0.22	0.237	0.207	0.191	0.192	0.288	0.206	0.523	0.466	0.48	0.451	0.324	0.49		0.547	0.627
NCI-H322M	0.835	0.895	0.862	0.826	0.788	0.51	0.563	0.581	0.543	0.532	0.408	0.45	0.486	0.391	0.513	0.492	0.636	0.516
NCI-H358	0.229	0.304	0.234	0.293	0.187	0.559	0.521	0.614	0.544	0.336	0.366	0.287	0.239	0.327	0.635	0.461	0.561	0.514
NCI-H441	0.347	0.351	0.348	0.332	0.306	0.621	0.632	0.69	0.608	0.549	0.443	0.461	0.379	0.328	0.579	0.347	0.603	0.52
NCI-H460	0.0336	0.0335	0.03	0.0417	0.0255	0.215	0.189	0.26	0.23	0.31	0.407	0.353	0.365	0.365	0.319	0.302	0.137	0.0418
NCI-H596	1.07	1.26	1.04	0.893	0.938	0.975	0.853	0.97	0.946	0.424	0.471	0.385	0.446	0.388	0.565	0.572	0.734	0.698
NCI-H647	0.11	0.212	0.171	0.334	0.167	0.462	0.294	0.472	0.248	0.563	0.444	0.553	0.429	0.493	0.516	0.423	0.453	0.207
NCI-H650	0.952	0.773	0.834	0.714	0.755	0.943	0.642	0.985	0.882	0.933	0.736	0.709	0.696	0.578	0.553	0.447	0.528	0.437
NCI-H727	0.305	0.513		0.427	0.254	0.823	0.597	0.623	0.555	0.36	0.267	0.276	0.373	0.29	0.704	0.494	0.685	0.741
NCI-H838	0.323	0.284	0.308	0.389	0.355	0.74	0.778	0.918	0.787	0.522	0.5	0.456	0.652	0.638	0.37	0.394	0.396	0.331
NCI-H1355	0.699	0.782	0.779	0.688	0.648	0.571	0.385	0.773	0.692	0.449	0.441	0.352	0.329	0.354	0.343	0.38	0.386	0.331
NCI-H1395	0.635	0.774	0.664	0.663	0.559	0.377	0.378	0.392	0.404	0.627	0.799	0.601	0.606	0.567	0.641	0.588	0.639	0.595
NCI-H1437	1.13	1.07	1.2	1.24	1.13	0.726	0.851	0.93	0.848	0.407	0.448	0.277	0.232	0.256	0.697	0.742	0.795	0.614
NCI-H1651	0.787	0.715	0.981	0.828	0.582	0.423	0.412	0.448	0.386	0.729	0.64	0.503	0.55	0.451	0.73	0.597	0.717	0.697
NCI-H1666	1.02	1.01	0.969	0.994	1.11	0.686	0.765	0.79	0.715	0.603	0.404	0.5	0.367	0.291	0.539	0.697	0.801	0.797
NCI-H1734	0.183	0.197	0.194	0.229	0.232	0.612	0.413	0.672	0.662	0.471	0.468	0.444	0.459	0.433	0.647	0.446	0.599	0.524

Cell Line	relative viability (Tosedostat + Luminespib; first compound 0.02 µM)	relative viability (Tosedostat + Luminespib; first compound 0.06325 µM)	relative viability (Tosedostat + Luminespib; first compound 0.2 µM)	relative viability (Tosedostat + Luminespib; first compound 0.6325 µM)	relative viability (Tosedostat + Luminespib; first compound 2 µM)	relative viability ([1]; first compound 0.253 µM)	relative viability ([1]; first compound 0.8 µM)	relative viability ([1]; first compound 2.53 µM)	relative viability ([1]; first compound 8 µM)	relative viability (Tosedostat + Pictilisib; first compound 0.02 µM)	relative viability (Tosedostat + Pictilisib; first compound 0.06325 µM)	relative viability (Tosedostat + Pictilisib; first compound 0.2 µM)	relative viability (Tosedostat + Pictilisib; first compound 0.6325 µM)	relative viability (Tosedostat + Pictilisib; first compound 2 µM)	relative viability ([2]; first compound 0.253 µM)	relative viability ([2]; first compound 0.8 µM)	relative viability ([2]; first compound 2.53 µM)	relative viability ([2]; first compound 8 µM)
NCI-H1755	0.595	0.512	0.512	0.578	0.415	0.442	0.428	0.465	0.418	0.461	0.489	0.38	0.376	0.276	0.609	0.625	0.669	0.597
NCI-H1792	0.427	0.356	0.433	0.802	0.935	0.535	0.574	0.689	0.472	0.282	0.279	0.272	0.232	0.276	0.547	0.587	0.686	0.731
NCI-H1793	0.166	0.233	0.322	0.245	0.249	0.411	0.482	0.756	0.407	0.484	0.31	0.507	0.403	0.329	0.253	0.2	0.296	0.276
NCI-H1915	0.864	0.79	0.814	0.803	0.608	0.501	0.276	0.464	0.381	1.24	0.955	1	0.815	0.838	0.596	0.349	0.553	0.421
NCI-H1944	0.855	0.599	0.758	0.724	0.748	0.368	0.348	0.561	0.441	0.368	0.37	0.363	0.352	0.356	0.36	0.379	0.441	0.425
NCI-H1975	0.208	0.195	0.382	0.325	0.19			0.717	0.719	0.28	0.311	0.252	0.25	0.241		0.529	0.754	0.695
NCI-H1993	0.87	0.736	1.05	0.827	0.781	0.713	0.69	0.769	0.652	0.818	0.863	1.01	0.84	0.688	0.457	0.552	0.523	0.581
NCI-H2085	0.377	0.969	0.491	0.407	0.4	0.636	0.667	0.797	0.607	0.445	0.518	0.512	0.593	0.481	0.594		0.732	0.49
NCI-H2087	0.181	0.158	0.273	0.229	0.21	0.903	0.906	0.953	0.704	1.09	0.791	0.946	0.529	0.684	0.641	0.422	0.422	0.3
NCI-H2126	0.848	0.905	0.91	0.878	0.654	0.893	0.854	0.929	0.849	0.506	0.533	0.513	0.437	0.472	0.626	0.589	0.756	0.661
NCI-H2170	0.819	0.637	0.612	0.592	0.662	0.343	0.346	0.472	0.367	0.31	0.33	0.385	0.291	0.289	0.486	0.485	0.654	0.489
NCI-H2347	0.421	0.425	0.594	0.417	0.474	0.56	0.572	0.637	0.489	0.659	0.662	0.554	0.771	0.552		0.366	0.463	0.354
NCI-H2405	0.8	0.809	0.838	0.786	0.79	0.684	0.684	0.627	0.654	0.578	0.499	0.478	0.467	0.445	0.607	0.549	0.634	0.616
NCI-H3122	0.0953	0.083	0.106	0.122	0.132	0.444	0.469	0.503	0.485	0.663	0.659	0.615	0.692	0.704	0.359	0.384	0.418	0.348
PC-3 [JPC-3]	0.735	0.734	0.731	0.692	0.537	0.702	0.602	0.728	0.914	0.756	0.771	0.602	0.576	0.501	0.691	0.619	0.655	0.681
PC-14	0.163	0.197	0.16	0.207	0.127	0.28	0.271	0.374	0.253	0.789	0.647	0.555	0.385	0.458	0.818	0.572	0.721	0.643
RERF-LC-KJ	1.35	1.23	1.36	1.08	1.2	0.53	0.569	0.564	0.554	0.463	0.647	0.45	0.471	0.433	0.524	0.531	0.622	0.479
